According to patent publication US10647687B2, “Spiropyrazine derivatives as inhibitors of non-apoptotic regulated cell-death” (Helmholtz Zentrum München Deutsches Forschungszentrum für …, priority 2014, dated 2020):

Tests used:
SH-SY5Y cells = assay: Specificity: TNF-alpha-induced apoptosis in SH-SY5Y cells (Example B.3); format: cell-based, human; details: compound 1 μM, TNF-alpha 10 ng/mL, FIG. 1
Description: SH-SY5Y cells were propagated and seeded in 96-well plates, together with compound N-1, N-2, N-10 of Table 1-N (FIG. 1A), compound O/S-6 or O/S-3 of Table 1-O/S (FIG. 1B), or compound C-12, C-91, or C-205 of Table 1-C (FIG. 1C) (each 1 μM) and TNF-alpha was added (final concentration: 10 ng/mL) to induce apoptosis. The apoptosis and pan-caspase inhibitor z-vad (final concentration: 50 μM) and the necroptosis inhibitor Necrostatin-1 (Nec-1; final concentration: 5 μM) were used for comparison. Control wells were established with vehicle only (DMSO), with and without treatment with TNF-alpha to induce apoptosis. Cells were incubated, and cell survival was detected and quantified. Percentage cell survival after TNF-alpha-induced apoptosis is shown (error bars indicate standard deviation (SD)).
Briefly, SH-SY5Y cells were propagated and seeded in 96-well plates, together with the compound to be tested (1 μM), generally as described in Example B.1, except they were seeded at 1,000 cell/well and instead of BSO, TNF-alpha (Invitrogen) was added to a final concentration of 10 ng/mL to induce apoptosis. The apoptosis and pan-caspase inhibitor Z-VAD-fink (Enzo Life Science; final concentration 50 μM) and the necroptosis inhibitor Necrostatin-1 (Nec-1; Enzo Life Science; final concentration 5 μM) were used for comparison. Control wells were established with vehicle only (DMSO), with and without treatment with TNF-alpha to induce apoptosis. Cells were incubated, and cell survival was detected and quantified as described in Example B.1.

C57BL/6 mice [1] = assay: Liver ischemia-reperfusion injury model (Example C.1); format: in vivo, mouse; details: single i.p. dose 10 mg/Kg
Description: FIG. 2: Efficacy of a compound disclosed herein in an animal model of liver IRI. […] The “Sham” bar represents the data from control animals that were treated to the same protocol but without atraumatic clipping. Errors shown are SEM. Significant differences are seen between IRI+vehicle compared to IRI+Cmpd, as well as between IRI+vehicle compared to Sham+vehicle.
Briefly, to test such utility of compounds disclosed herein, ischemia is induced in the liver of 6-8 week old C57BL/6 mice (Charles River) by midline laparotomy whereby the blood supply to the left and median lobes of the liver is interrupted via atraumatic clipping for 90 min, followed by reperfusion for a period of 24 h. After reperfusion, but prior to final abdominal closure, animals are treated with a single i.p. dose of the compound to be tested (10 mg/Kg), or with vehicle (DMSO) as negative control. […] The “Sham” bar represents the data from control animals that were treated to the same protocol but without atraumatic clipping.

C57BL/6 mice [2] = assay: Kidney ischemia-reperfusion injury model (Example C.2); format: in vivo, mouse; details: dose of both 1 and 10 mg/kg, compared to vehicle control, FIG. 3
Description: FIG. 3: Efficacy of a compound disclosed herein in an animal model of kidney IRI.
Briefly, to test such utility of compounds disclosed herein, ischemia is induced in the kidney of 6-8 week old C57BL/6 mice by interruption of the blood supply to the kidney via reversible clipping of the Arteria renalis for 30 min, followed by reperfusion for a period of 24 h. Mice are treated with compound (or vehicle control) generally as described in Example C.1 at 1 hour prior to and four hours after abdomal closure and once daily over a period of 14 days. Markers to be investigated for IRI of kidney include […] creatinine levels in the serum along with histopathological analysis.

C57BL/6 mice [3] = assay: Traumatic brain injury, controlled cortical impact model (Example C.5); format: in vivo, mouse; details: compared to vehicle control, 24 h after CCI, FIG. 4
Description: FIG. 4: Efficiency of a compound disclosed herein in an animal model of traumatic brain injury.
Briefly, to test such utility of compounds disclosed herein, male C57BL/6 mice are anesthetised prior to the induction of trauma. Core body temperature is maintained at 37° C. using a feedback-controlled heating pad connected to a rectal probe. To induce trauma, a craniotomy is prepared over the right parietal cortex. Controlled cortical impact (CCI) is delivered perpendicular to the surface of the brain with a custom-made CCI applicator for mice using the following parameters: 8 m/s velocity, 3 mm diameter, 1 mm brain displacement and 150 ms duration. Following CCI, the skull is closed by affixing the removed bone flap using veterinary-grade tissue glue (Vetbond, 3M, St. Paul, Minn.). Compounds are administered at 1 mg/Kg or 10 mg/Kg (dissolved in 40% PEG) 15 minutes after TBI induction and 40% PEG is included as vehicle control. The animals are recovered from anesthesia in an incubator heated to 33° C. Animals are sacrificed and the brain is removed 24 h after CCI and immediately frozen on crushed dry ice and stored at −80° C. […] The sections are stained with cresyl violet for quantifying the area of contused brain, and contusion volume is calculated and the effect of the compounds tested observed following analysis of such data.

In the case of `Clc1cccc(CNC2=Nc3ccccc3NC23CCNCC3)c1` [N-2], the “Percentage cell survival after TNF-alpha-induced apoptosis” value (SH-SY5Y cells) is reported as “Non-inhibition of apoptotic cell-death”, the “serum marker for liver cell damage GPT” value (C57BL/6 mice [1]; liver IRI, compared to vehicle control, FIG. 2A) is reported as “significant reduction” and the “serum marker for liver cell damage GOT” value (C57BL/6 mice [1]; liver IRI, compared to vehicle control, FIG. 2B) is reported as “significant reduction”. The “serum GPT and GOT, IRI+Cmpd compared to Sham+vehicle” value (C57BL/6 mice [1]; FIG. 2) was “No significant difference”, the “survival of mice suffering kidney-ischemic reperfusion injury” value (C57BL/6 mice [2]) was “Improved survival” and the “contusion volume in the brains of mice following traumatic brain injury” value (C57BL/6 mice [3]) was “trend of a (non-significant) positive effect”.
